Source: patent US10745755B2, “Sestrin activators for preventing and/or attenuating skin ageing and/or hydrating the skin and/or for regulating skin pigmentation” (CHANEL PARFUMS BEAUTE, priority 2014, dated 2020)

What was measured:
Format in all cases: cell-based
[1] = system: Cytokeratin 10; experiment: Cytokeratin 10 immunostaining in human skin equivalents; details: versus untreated control, retinol last 4 days
Protocol: (§1) Keratinocytes and fibroblasts from juvenile donors were purchased from Promocell. The dermal equivalent consists of a collagen solution containing rat tail collagen type I (BD Biosciences), 10× DMEM medium (Gibco/Invitrogen), sodium bicarbonate (Gibco/Invitrogen) and fibroblasts added into 6 well-culture inserts (BD) and placed in deep 6-well culture plates (BD). After 2 hours, of polymerisation at 37° C., dermal equivalents were equilibrated in supplemented Keratinocyte Growth Medium (KGM2 basal medium+SupplementMix, Promocell) and placed at 37° C., 5% CO2. After 24 hours, suspension of keratinocytes was added over the gel and submerged for 3 days in supplemented Keratinocyte Growth Medium. The inserts were placed at the air liquid interface in Serum-free Keratinocyte Defined Medium (SKDM: SKDM is a high Ca^2+ medium consisting of KGM2 basal medium, transferrin (Sigma), BSA (Sigma) and L-ascorbic acid (Sigma)) for 10 days. 24 hours before culture arrest, skin equivalents were irradiated, in duplicates, with 100 mJ/cm^2 UVB.
(§2) Human skin equivalents were fixed in 10% formalin before embedding in paraffin and cutting into 5 μm-thick sections. Sections were deparaffinized in xylene, rehydrated in ethanol baths, rinsed in deionised water. Antigen retrieval in 10 mM citrate buffer pH6 at 90° C. for 20 minutes was performed before blocking reaction in goat serum 3% for 1 hour. […]

[2] = system: Loricrin; experiment: Loricrin immunostaining in human skin equivalents; details: versus untreated control, extract last 7 days, retinol last 4 days
Protocol: as §1, §2

[3] = system: SESN3; experiment: SESN3 immunofluorescence in human skin equivalents; details: versus untreated control, extract last 7 days, retinol last 4 days
Protocol: as §1, §2

CC1=C(/C=C/C(C)=C/C=C/C(C)=C/CO)C(C)(C)CCC1 [retinol]
decreased: Cytokeratin 10 immunostaining [1] | Loricrin immunostaining [2] | SESN3 staining intensity [3]
